The numbers were not newly measured in patent US6823530B2, “Antimicrobial treatment for swimwear” (Kimberly-Clark Worldwide, Inc., priority 2000, dated 2004), which cites them from elsewhere.

For data set [1], the system named is gram negative and positive bacteria.

Turning to `CC1(C)C(=O)N(CO)C(=O)N1CO` [DMDM Hydantoin, DMDM (dimethyl dimethyl) Hydantoin], the “effectiveness against gram negative and positive bacteria” value in data set [1] was “highly effective”. Also, where the note is “held above room temperature (50° Celsius) for a long period of time”, the thermal stability entry is on record as “does not break down”. For the same compound, where the note is “wide pH range”, the pH stability result is given as “stable over a wide pH range”.
